{"source": "PubChem BioAssay AID1963976", "about": "(Molecular Pharmacology Branch, DTP, NCI, 2024)", "tested_on": "435261-313-R-J1-PDC tumor spheroid viability", "assay": "Anticancer human tumor 435261-313-R-J1-PDC patient-derived colon adenocarcinoma cell line growth inhibition [PI3K]", "conditions": "spheroids with HUVEC and MSC; for IC50: curve of first compound; for viability, T/C: stronger effect = lower value", "method_in_brief": "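Targeted small molecules plus PI3K inhibitors, half-log dose series from Cmax (default top 10 microM), were applied to heterotypic spheroids of cancer cells with HUVEC and MSCs. Viability indicated growth inhibition.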", "key": {"[1]": {"conditions": "second compound 0.0316 µM, first compound 0.0316 µM"}, "[2]": {"conditions": "second compound 0.0316 µM, first compound 0.1 µM"}, "[3]": {"conditions": "second compound 0.0316 µM, first compound 0.316 µM"}, "[4]": {"conditions": "second compound 0.0316 µM, first compound 1 µM"}, "[5]": {"conditions": "second compound 0.0316 µM, first compound 3.16 µM"}, "[6]": {"conditions": "second compound 0.0316 µM, first compound 10 µM"}, "[7]": {"conditions": "second compound 0.1 µM, first compound 0.0316 µM"}, "[8]": {"conditions": "second compound 0.1 µM, first compound 0.1 µM"}, "[9]": {"conditions": "second compound 0.1 µM, first compound 0.316 µM"}, "[10]": {"conditions": "second compound 0.1 µM, first compound 1 µM"}, "[11]": {"conditions": "second compound 0.1 µM, first compound 3.16 µM"}, "[12]": {"conditions": "second compound 0.1 µM, first compound 10 µM"}, "[13]": {"conditions": "second compound 0.316 µM, first compound 0.0316 µM"}, "[14]": {"conditions": "second compound 0.316 µM, first compound 0.1 µM"}, "[15]": {"conditions": "second compound 0.316 µM, first compound 0.316 µM"}, "[16]": {"conditions": "second compound 0.316 µM, first compound 1 µM"}, "[17]": {"conditions": "second compound 0.316 µM, first compound 3.16 µM"}, "[18]": {"conditions": "second compound 0.316 µM, first compound 10 µM"}, "[19]": {"conditions": "second compound 1 µM, first compound 0.0316 µM"}, "[20]": {"conditions": "second compound 1 µM, first compound 0.1 µM"}, "[21]": {"conditions": "second compound 1 µM, first compound 0.316 µM"}, "[22]": {"conditions": "second compound 1 µM, first compound 1 µM"}, "[23]": {"conditions": "second compound 1 µM, first compound 3.16 µM"}, "[24]": {"conditions": "second compound 1 µM, first compound 10 µM"}}, "data": [{"compound": "CC1(C)CCC(CN2CCN(c3ccc(C(=O)NS(=O)(=O)c4ccc(NCC5CCOCC5)c([N+](=O)[O-])c4)c(Oc4cnc5[nH]ccc5c4)c3)CC2)=C(c2ccc(Cl)cc2)C1", "note": "+ CC(Nc1ccc2c(c1)OCCn1cc(N3C(=O)OCC3C(F)F)nc1-2)C(N)=O;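 further: spheroids exposed to compounds for 7 days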", "values": [{"measurement": "IC50", "setting": "second compound 0.00316 µM", "value": 5.55, "unit": "µM"}, {"measurement": "IC50", "setting": "second compound 0.01 µM", "value": 6.17, "unit": "µM"}, {"measurement": "IC50", "setting": "second compound 0.0316 µM", "value": 4.21, "unit": "µM"}, {"measurement": "IC50", "setting": "second compound 0.1 µM", "value": "< 0.0316", "unit": "µM"}, {"measurement": "IC50", "setting": "second compound 0.316 µM", "value": "< 0.0316", "unit": "µM"}, {"measurement": "IC50", "setting": "second compound 1 µM", "value": "< 0.0316", "unit": "µM"}, {"measurement": "viability, T/C", "setting": "second compound 0.00316 µM, first compound 0.0316 µM", "value": 69.6, "unit": "%"}, {"measurement": "viability, T/C", "setting": "second compound 0.00316 µM, first compound 0.1 µM", "value": 90.5, "unit": "%"}, {"measurement": "viability, T/C", "setting": "second compound 0.00316 µM, first compound 0.316 µM", "value": 79.2, "unit": "%"}, {"measurement": "viability, T/C", "setting": "second compound 0.00316 µM, first compound 1 µM", "value": 127, "unit": "%"}, {"measurement": "viability, T/C", "setting": "second compound 0.00316 µM, first compound 3.16 µM", "value": 81.3, "unit": "%"}, {"measurement": "viability, T/C", "setting": "second compound 0.00316 µM, first compound 10 µM", "value": 17.4, "unit": "%"}, {"measurement": "viability, T/C", "setting": "second compound 0.01 µM, first compound 0.0316 µM", "value": 81.3, "unit": "%"}, {"measurement": "viability, T/C", "setting": "second compound 0.01 µM, first compound 0.1 µM", "value": 77.5, "unit": "%"}, {"measurement": "viability, T/C", "setting": "second compound 0.01 µM, first compound 0.316 µM", "value": 79, "unit": "%"}, {"measurement": "viability, T/C", "setting": "second compound 0.01 µM, first compound 1 µM", "value": 90.8, "unit": "%"}, {"measurement": "viability, T/C", "setting": "second compound 0.01 µM, first compound 3.16 µM", "value": 95.9, "unit": "%"}, {"measurement": "viability, T/C", "setting": "second compound 0.01 µM, first compound 10 µM", "value": 24.8, "unit": "%"}, {"measurement": "viability, T/C", "setting": "[1]", "value": 58.7, "unit": "%"}, {"measurement": "viability, T/C", "setting": "[2]", "value": 59.2, "unit": "%"}, {"measurement": "viability, T/C", "setting": "[3]", "value": 55.1, "unit": "%"}, {"measurement": "viability, T/C", "setting": "[4]", "value": 65.8, "unit": "%"}, {"measurement": "viability, T/C", "setting": "[5]", "value": 74.4, "unit": "%"}, {"measurement": "viability, T/C", "setting": "[6]", "value": 11.7, "unit": "%"}, {"measurement": "viability, T/C", "setting": "[7]", "value": 34.1, "unit": "%"}, {"measurement": "viability, T/C", "setting": "[8]", "value": 39.8, "unit": "%"}, {"measurement": "viability, T/C", "setting": "[9]", "value": 51.5, "unit": "%"}, {"measurement": "viability, T/C", "setting": "[10]", "value": 35.1, "unit": "%"}, {"measurement": "viability, T/C", "setting": "[11]", "value": 33.6, "unit": "%"}, {"measurement": "viability, T/C", "setting": "[12]", "value": 10.8, "unit": "%"}, {"measurement": "viability, T/C", "setting": "[13]", "value": 23.1, "unit": "%"}, {"measurement": "viability, T/C", "setting": "[14]", "value": 23.3, "unit": "%"}, {"measurement": "viability, T/C", "setting": "[15]", "value": 22.3, "unit": "%"}, {"measurement": "viability, T/C", "setting": "[16]", "value": 24, "unit": "%"}, {"measurement": "viability, T/C", "setting": "[17]", "value": 26.2, "unit": "%"}, {"measurement": "viability, T/C", "setting": "[18]", "value": 8.22, "unit": "%"}, {"measurement": "viability, T/C", "setting": "[19]", "value": 16.4, "unit": "%"}, {"measurement": "viability, T/C", "setting": "[20]", "value": 20, "unit": "%"}, {"measurement": "viability, T/C", "setting": "[21]", "value": 14.9, "unit": "%"}, {"measurement": "viability, T/C", "setting": "[22]", "value": 18.3, "unit": "%"}, {"measurement": "viability, T/C", "setting": "[23]", "value": 18.8, "unit": "%"}, {"measurement": "viability, T/C", "setting": "[24]", "value": 7.07, "unit": "%"}]}, {"compound": "CC(Cn1ccc(-c2ccc(C#N)c(Cl)c2)n1)NC(=O)c1cc(C(C)O)[nH]n1", "note": "(stereo not given) + CC(Nc1ncnc2nc[nH]c12)c1cc2cccc(Cl)c2c(=O)n1-c1ccccc1", "values": [{"measurement": "IC50", "setting": "second compound 0.0316 µM", "value": "> 10", "unit": "µM"}, {"measurement": "IC50", "setting": "second compound 0.1 µM", "value": "> 10", "unit": "µM"}, {"measurement": "IC50", "setting": "second compound 0.316 µM", "value": "> 10", "unit": "µM"}, {"measurement": "IC50", "setting": "second compound 1 µM", "value": "> 10", "unit": "µM"}, {"measurement": "IC50", "setting": "second compound 3.16 µM", "value": "> 10", "unit": "µM"}, {"measurement": "IC50", "setting": "second compound 10 µM", "value": "> 10", "unit": "µM"}, {"measurement": "viability, T/C", "setting": "[1]", "value": 101, "unit": "%"}, {"measurement": "viability, T/C", "setting": "[2]", "value": 96.2, "unit": "%"}, {"measurement": "viability, T/C", "setting": "[3]", "value": 107, "unit": "%"}, {"measurement": "viability, T/C", "setting": "[4]", "value": 75.8, "unit": "%"}, {"measurement": "viability, T/C", "setting": "[5]", "value": 101, "unit": "%"}, {"measurement": "viability, T/C", "setting": "[6]", "value": 100, "unit": "%"}, {"measurement": "viability, T/C", "setting": "[7]", "value": 105, "unit": "%"}, {"measurement": "viability, T/C", "setting": "[8]", "value": 95.9, "unit": "%"}, {"measurement": "viability, T/C", "setting": "[9]", "value": 90.9, "unit": "%"}, {"measurement": "viability, T/C", "setting": "[10]", "value": 103, "unit": "%"}, {"measurement": "viability, T/C", "setting": "[11]", "value": 115, "unit": "%"}, {"measurement": "viability, T/C", "setting": "[12]", "value": 76.1, "unit": "%"}, {"measurement": "viability, T/C", "setting": "[13]", "value": 82.7, "unit": "%"}, {"measurement": "viability, T/C", "setting": "[14]", "value": 90.4, "unit": "%"}, {"measurement": "viability, T/C", "setting": "[15]", "value": 90.5, "unit": "%"}, {"measurement": "viability, T/C", "setting": "[16]", "value": 80.5, "unit": "%"}, {"measurement": "viability, T/C", "setting": "[17]", "value": 103, "unit": "%"}, {"measurement": "viability, T/C", "setting": "[18]", "value": 81.6, "unit": "%"}, {"measurement": "viability, T/C", "setting": "[19]", "value": 81.1, "unit": "%"}, {"measurement": "viability, T/C", "setting": "[20]", "value": 99.1, "unit": "%"}, {"measurement": "viability, T/C", "setting": "[21]", "value": 70.9, "unit": "%"}, {"measurement": "viability, T/C", "setting": "[22]", "value": 85.9, "unit": "%"}, {"measurement": "viability, T/C", "setting": "[23]", "value": 73.5, "unit": "%"}, {"measurement": "viability, T/C", "setting": "[24]", "value": 76.6, "unit": "%"}, {"measurement": "viability, T/C", "setting": "second compound 3.16 µM, first compound 0.0316 µM", "value": 77.8, "unit": "%"}, {"measurement": "viability, T/C", "setting": "second compound 3.16 µM, first compound 0.1 µM", "value": 58.4, "unit": "%"}, {"measurement": "viability, T/C", "setting": "second compound 3.16 µM, first compound 0.316 µM", "value": 77.2, "unit": "%"}, {"measurement": "viability, T/C", "setting": "second compound 3.16 µM, first compound 1 µM", "value": 85.5, "unit": "%"}, {"measurement": "viability, T/C", "setting": "second compound 3.16 µM, first compound 3.16 µM", "value": 65.1, "unit": "%"}, {"measurement": "viability, T/C", "setting": "second compound 3.16 µM, first compound 10 µM", "value": 62.1, "unit": "%"}, {"measurement": "viability, T/C", "setting": "second compound 10 µM, first compound 0.0316 µM", "value": 58.5, "unit": "%"}, {"measurement": "viability, T/C", "setting": "second compound 10 µM, first compound 0.1 µM", "value": 41.7, "unit": "%"}, {"measurement": "viability, T/C", "setting": "second compound 10 µM, first compound 0.316 µM", "value": 48.5, "unit": "%"}, {"measurement": "viability, T/C", "setting": "second compound 10 µM, first compound 1 µM", "value": 74.7, "unit": "%"}, {"measurement": "viability, T/C", "setting": "second compound 10 µM, first compound 3.16 µM", "value": 72.4, "unit": "%"}, {"measurement": "viability, T/C", "setting": "second compound 10 µM, first compound 10 µM", "value": 42, "unit": "%"}]}, {"compound": "CC1(C)CCC(CN2CCN(c3ccc(C(=O)NS(=O)(=O)c4ccc(NCC5CCOCC5)c([N+](=O)[O-])c4)c(Oc4cnc5[nH]ccc5c4)c3)CC2)=C(c2ccc(Cl)cc2)C1", "values": [{"measurement": "viability, T/C", "setting": "compound 3.16 µM", "value": "107% [middle of 4 runs]"}]}]}
